The structures appear in SMILES notation.

Experiment [1] concerns adalimumab producing cell line 2. The experiment in a line: Lys-C peptide mapping for MGO modification of adalimumab, shake flask culture, cell line 2. In kind it is cell-based. Particulars: Example 5; day 11 harvest; control 1.93%. The method, then:
For shake flask experiments (Example 4), duplicate 500 mL Corning vented non-baffled shake flasks (200 mL working volume) were used for each condition. Similar to the seed train stage, the production stage shake flasks were kept in incubators maintained at 36° C. and 5% CO2 on shaker platforms that were set at 140 rpm.
Typical trypsin digestion for peptide mapping cleaves a denatured, reduced and alkylated protein at the carboxyl side of the two basic amino acids, lysine and arginine. Methylglyoxal (MGO) is a small molecule metabolite derived as a glycolysis byproduct which can modify arginine residues. […] The challenge of quantifying the amount of MGO modified peptide is that, it is not compared to an equivalent non-modified peptide but rather to two parental cleaved peptides. […] In order to determine a truly accurate direct measurement of an MGO-modified peptide, it is compared to its non-modified counterpart and expressed as a percentage. […] The result is a direct comparison of the same peptide with and without an MGO modification, which provides a high degree of accuracy in quantifying even trace levels of the modified species.
Procedure: Samples were dilated to a nominal concentration of 4 mg/mL. […] Samples were analyzed by LC/MS peptide mapping. […] Eluting peaks were monitored using a Thermo Scientific LTQ-Orbitrap Mass Spectrometer. […]

Experiment [2] relates to adalimumab producing cell line 1. The experiment in a line: Glucose consumption of the culture, cell line 1. Particulars: Example 3; arginine supplementation 4 g/l. The experiment is classed as cell-based. The method, then: For the bioreactor (3 L Applikon) experiments (Examples 1, 2 and 3), 3 L, bioreactors (1.5 L working volume) were initiated at 35° C. (cell line 1) and 36° C. (cell line 2), 30% DO, 200 rpm, pH of 7.1. In some of the conditions, pH was ramped down to 6.8 in three days and kept at pH 6.8 thereafter. The inclusion of pH ramp for a particular condition is indicated by the final pH in the experimental design. If the final pH is 7.1, then it indicates no pH ramp was performed, whereas if the final pH is 6.8, a pH ramp was performed on day 3 from pH 7.1 to pH 6.8. In some of the conditions, a temperature shift was performed. When temperature shift was performed, the temperature was lowered to 33° C. Again, the conditions where such a temperature shift was performed can be identified from the final temperature in the experimental design. Cultures were run in extended batch mode with the addition of a desired amount of 40% glucose stock solution was fed based on glucose measurements.
To assess if this reduction in MGO modification in the test conditions also corresponded to lower glucose consumption, the specific glucose consumption rate was calculated across the two phases of culture: average over day 0-day 5 and average over day 5-10 (period post temperature shift) (FIG. 4b). The specific glucose consumption rate in the conditions with 2DDG supplementation was lower in both phases. […] In the period post the temperature shift, up to 50% reduction in specific glucose consumption rate relative to that in the control was observed. Thus, a clear correlation has been observed between reduced glucose consumption and the extent of MGO modification of the peptides.
To further assess the applicability of this strategy, the cumulative glucose consumption levels were also evaluated for these conditions in this study (FIG. 6b). This was calculated by using daily glucose concentration measurements via the offline analyzer and by accounting for glucose feeds when added. […]

In the case of `N[C@@H](CO)C(=O)O` [Test 1, Serine], in experiment [1], the “MGO modification (total)” value worked out at 0.68%.
For `N=C(N)NCCC[C@H](N)C(=O)O` [arginine, Arginine], the glucose consumption result in experiment [2] is reported as “no additional reduction”.
